Experimental data as given in article PMC11790914, “Chemogenomics for steroid hormone receptors (NR3)” (Communications Chemistry, 2025).
Like-named read-outs stand apart in the source and are kept apart here.

What was measured:
NR3A2 (ERβ) = settings: (lit.); ref Supplementary Table 1; read-out: Potency [nM] IC50, NR3A2 (ERβ); cited from earlier work
NR3A1 (ERα) = settings: cited from earlier work; for IC50: read-out: Potency [nM] IC50, NR3A1 (ERα)
NR2B1 (RXRα) = molecular target: T1, NR2B1 (RXRα) (Homo sapiens, UniProt P19793); assay: Gal4 hybrid reporter gene assay RXRα; type: cell-based; settings: n=3
T1 construct: expressed in transfected cells; host or cells: HEK293T
Description: (§1) Reference ligands are listed in the methods section.
Five hours after transfection, the cells were incubated with the NR3 CG compound candidates at the recommended concentrations by changing the medium to Opti-MEM supplemented with penicillin (100 µ/mL) and streptomycin (100 µg/mL) additionally containing 0.1% DMSO and the respective test compound or 0.1% DMSO alone as untreated control. Firefly (reporter) and renilla (control) luminescence were measured after 14–16 h incubation using the Dual-Glo® Luciferase Assay System (Promega, Fitchburg, Wisconsin, USA; #E2980) according to manufacturer’s protocol on a Tecan Spark® 10M multimode microplate reader (Tecan Group AG, Männedorf, Switzerland). To obtain relative light units (RLU) firefly luminescence was divided by renilla luminescence and multiplied by 1000. Fold activation was obtained by dividing the mean RLU of a test sample by the mean RLU of the DMSO (0.1%) control. Experiments were performed in singlets in at least three biologically independent repeats.
Supplementary Figure 1. […] Compounds are labeled according
Supplementary Figure 2. […] Compounds are
representing the NR1, NR2, NR4 and NR5 families.
scanning fluorimetry (DSF).
a concentration of 20 µM.

NR2A2 (HNF4α) = molecular target: T2, NR2A2 (HNF4α) (Homo sapiens, UniProt P41235); assay: Gal4 hybrid reporter gene assay HNF4α; type: cell-based; settings: n=3
T2 construct: expressed in transfected cells; host or cells: HEK293T
Description: as §1
(§2) HEK293T cells (ATCC, Manassas, Virgina, USA; #CRL-3216) were cultured to a maximal confluence of 70–80% in DMEM, high glucose, supplemented with 10% FCS, sodium pyruvate (1 mM), penicillin (100 U/mL), and streptomycin (100 μg/mL) at 37 °C and 5% CO2 (v/v), and seeded in clear 96-well plates (4 × 10^4 cells per well). After 20–24 h, medium was changed to Opti-MEM without supplements and the cells were transiently transfected using Lipofectamine™ LTX/Plus™ Reagents (Invitrogen, Carlsbad, California, USA; #15338100) according to the manufacturer’s protocol with pFR-Luc (reporter gene; Stratagene, Agilent Technologies, Santa Clara, California, USA; #219050), pRL-SV40 (control gene for normalization of transfection efficiency and cell growth; Promega, Fitchburg, Wisconsin, USA; #E2231) and one pFA-CMV-hNR-LBD clone coding for the hinge region and ligand binding domain (LBD) of the human NR of interest. […] Firefly (reporter) and renilla (control) luminescence were measured after 14–16 h incubation using the Dual-Glo® Luciferase Assay System (Promega, Fitchburg, Wisconsin, USA; #E2980) according to manufacturer’s protocol on a Tecan Spark® 10M multimode microplate reader (Tecan Group AG, Männedorf, Switzerland). To obtain relative light units (RLU) firefly luminescence was divided by renilla luminescence and multiplied by 1000. […]

NR1H3 (LXRα) = molecular target: T3, NR1H3 (LXRα) (Homo sapiens, UniProt Q13133); assay: Gal4 hybrid reporter gene assay LXRα; type: cell-based; settings: n=3
T3 construct: expressed in transfected cells; host or cells: HEK293T
T3 sequence (Q13133 209-447 limits assumed): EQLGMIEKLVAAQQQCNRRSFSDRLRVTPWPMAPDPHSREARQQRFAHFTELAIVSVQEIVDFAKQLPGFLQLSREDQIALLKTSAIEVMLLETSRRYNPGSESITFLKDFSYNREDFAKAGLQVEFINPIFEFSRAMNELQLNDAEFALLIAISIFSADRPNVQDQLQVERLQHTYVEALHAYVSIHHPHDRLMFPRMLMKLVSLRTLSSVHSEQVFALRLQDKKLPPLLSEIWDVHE
Description: as §1
HEK293T cells (ATCC, Manassas, Virgina, USA; #CRL-3216) were cultured to a maximal confluence of 70–80% in DMEM, high glucose, supplemented with 10% FCS, sodium pyruvate (1 mM), penicillin (100 U/mL), and streptomycin (100 μg/mL) at 37 °C and 5% CO2 (v/v), and seeded in clear 96-well plates (4 × 10^4 cells per well). After 20–24 h, medium was changed to Opti-MEM without supplements and the cells were transiently transfected using Lipofectamine™ LTX/Plus™ Reagents (Invitrogen, Carlsbad, California, USA; #15338100) according to the manufacturer’s protocol with pFR-Luc (reporter gene; Stratagene, Agilent Technologies, Santa Clara, California, USA; #219050), pRL-SV40 (control gene for normalization of transfection efficiency and cell growth; Promega, Fitchburg, Wisconsin, USA; #E2231) and one pFA-CMV-hNR-LBD clone coding for the hinge region and ligand binding domain (LBD) of the human NR of interest. Five hours after transfection, the cells were incubated with the NR3 CG compound candidates at the recommended concentrations by changing the medium to Opti-MEM supplemented with penicillin (100 µ/mL) and streptomycin (100 µg/mL) additionally containing 0.1% DMSO and the respective test compound or 0.1% DMSO alone as untreated control. Firefly (reporter) and renilla (control) luminescence were measured after 14–16 h incubation using the Dual-Glo® Luciferase Assay System (Promega, Fitchburg, Wisconsin, USA; #E2980) according to manufacturer’s protocol on a Tecan Spark® 10M multimode microplate reader (Tecan Group AG, Männedorf, Switzerland). To obtain relative light units (RLU) firefly luminescence was divided by renilla luminescence and multiplied by 1000. Fold activation was obtained by dividing the mean RLU of a test sample by the mean RLU of the DMSO (0.1%) control. Experiments were performed in singlets in at least three biologically independent repeats. […]

NR1C3 (PPARγ) = molecular target: T4, NR1C3 (PPARγ) (Homo sapiens, UniProt P37231); assay: Gal4 hybrid reporter gene assay PPARγ; type: cell-based; settings: n=3
T4 construct: expressed in transfected cells; host or cells: HEK293T
Description: as §1, §2

NR1F3 (RORγ) = molecular target: T5, NR1F3 (RORγ) (Homo sapiens, UniProt P51449); assay: Gal4 hybrid reporter gene assay RORγ; type: cell-based; settings: 3 µM, n=3
T5 construct: expressed in transfected cells; host or cells: HEK293T
Description: as §1, §2

NR3C1 (GR) = settings: cited from earlier work
NR3C3 (PR) = settings: cited from earlier work; for IC50: (lit.), ref Supplementary Table 1, read-out: Potency [nM] IC50, NR3C3 (PR)
NR3C4 (AR) = settings: cited from earlier work

T5 sequence (P51449 269-508 limits assumed): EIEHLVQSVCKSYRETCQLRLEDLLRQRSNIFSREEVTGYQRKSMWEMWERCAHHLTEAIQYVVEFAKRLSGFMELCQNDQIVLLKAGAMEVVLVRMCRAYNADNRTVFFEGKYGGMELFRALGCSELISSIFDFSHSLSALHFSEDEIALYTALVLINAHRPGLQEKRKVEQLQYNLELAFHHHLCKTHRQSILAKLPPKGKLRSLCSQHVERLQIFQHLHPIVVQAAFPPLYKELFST
T4 sequence (P37231 238-503 limits assumed): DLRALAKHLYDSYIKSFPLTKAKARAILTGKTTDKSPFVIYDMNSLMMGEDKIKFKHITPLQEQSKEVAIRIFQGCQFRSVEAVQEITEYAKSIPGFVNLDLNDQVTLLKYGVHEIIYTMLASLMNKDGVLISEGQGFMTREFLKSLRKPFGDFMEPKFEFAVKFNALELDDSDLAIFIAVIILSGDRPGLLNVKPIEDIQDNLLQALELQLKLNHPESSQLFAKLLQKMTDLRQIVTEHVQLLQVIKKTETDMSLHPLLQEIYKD
T1 sequence (P19793 227-458 limits assumed): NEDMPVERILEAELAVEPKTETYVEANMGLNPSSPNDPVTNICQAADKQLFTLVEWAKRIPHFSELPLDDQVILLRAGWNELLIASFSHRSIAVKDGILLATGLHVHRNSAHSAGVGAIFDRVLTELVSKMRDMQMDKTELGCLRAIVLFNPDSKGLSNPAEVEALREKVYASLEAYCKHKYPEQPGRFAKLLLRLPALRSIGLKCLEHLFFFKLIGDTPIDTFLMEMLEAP
T2 sequence (P41235 147-377 limits assumed): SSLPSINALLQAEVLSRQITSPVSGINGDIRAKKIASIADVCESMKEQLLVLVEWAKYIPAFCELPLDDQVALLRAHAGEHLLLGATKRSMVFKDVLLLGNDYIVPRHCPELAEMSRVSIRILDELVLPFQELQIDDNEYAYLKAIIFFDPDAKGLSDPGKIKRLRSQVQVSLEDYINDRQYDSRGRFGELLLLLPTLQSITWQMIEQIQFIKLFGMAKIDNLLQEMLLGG

CC/C(=C(\c1ccc(O)cc1)c1ccc(OCCN(C)C)cc1)c1ccccc1 [(Z)-4-Hydroxytamoxifen]
IC50 (NR3A2 (ERβ)): 1 ± 1 nM | IC50 (NR3A1 (ERα)): 2 ± 1 nM

CC/C(=C(/c1ccc(/C=C/C(=O)O)cc1)c1ccc2[nH]ncc2c1)c1ccc(F)cc1Cl [ARN810]
IC50 (NR3A2 (ERβ)): 9 nM | IC50 (NR3A1 (ERα); (lit.), ref Supplementary Table 1): 6 nM | rel. activity from literature, NR3A1 (ERα): % ERα remaining (NR3A1 (ERα); ERα remaining (degrader), ref Supplementary Table 1): 9% | Activity on NR2B1 (RXRα) (NR2B1 (RXRα); 1 µM): -0.29 mean log10(fold reporter gene activity)

C[C@@H]1Cc2c([nH]c3ccccc23)[C@@H](c2c(F)cc(/C=C/C(=O)O)cc2F)N1CC(C)(C)F [AZD9496]
IC50 (NR3A1 (ERα)): 0.28 ± 0.04 nM

COc1ccc(-c2coc3cc(O)cc(O)c3c2=O)cc1 [Biochanin A]
Activity on NR2A2 (HNF4α) (NR2A2 (HNF4α); 10 µM): 0.38 mean log10(fold reporter gene activity) | Activity on NR1H3 (LXRα) (NR1H3 (LXRα); 10 µM): -0.46 mean log10(fold reporter gene activity) | Activity on NR2B1 (RXRα) (NR2B1 (RXRα); 10 µM): -0.68 mean log10(fold reporter gene activity) | Activity on NR1C3 (PPARγ) (NR1C3 (PPARγ); 10 µM): -0.56 mean log10(fold reporter gene activity)

CCCC1O[C@@H]2C[C@H]3[C@@H]4CCC5=CC(=O)C=C[C@]5(C)[C@H]4[C@@H](O)C[C@]3(C)[C@]2(C(=O)CO)O1 (stereo partly drawn) [Budesonide]
Activity on NR1F3 (RORγ) (NR1F3 (RORγ)): -0.30 mean log10(fold reporter gene activity)

CCN(CC)c1ccc(/C=N/NC(=O)c2ccc(O)cc2)cc1 [DY131]
Activity on NR targets outside NR3 family [mean log10(fold reporter gene activity)] NR2A2 (HNF4α) (NR2A2 (HNF4α); 3 µM, vs. DMSO ctrl): 0.29 log10(fold reporter gene activity) | Activity on NR targets outside NR3 family [mean log10(fold reporter gene activity)] NR1F3 (RORγ) (NR1F3 (RORγ); vs. DMSO ctrl): 0.21 log10(fold reporter gene activity)

Cc1ccc2c(NC[C@](O)(CC(C)(C)c3cc(F)cc4c3OCC4)C(F)(F)F)cccc2n1 [Mapracorat]
EC50 (NR3C1 (GR); (lit.), ref Supplementary Table 1, read-out: Potency [nM] EC50, NR3C1 (GR)): 1.6 ± 0.3 nM | rel. activity from literature, NR3C1 (GR): % transrepression (NR3C1 (GR); transrepression): 89 ± 4% | Activity on NR targets outside NR3 family [mean log10(fold reporter gene activity)] NR1H3 (LXRα) (NR1H3 (LXRα); 1 µM, vs. DMSO ctrl): -0.38 log10(fold reporter gene activity)

CC#C[C@]1(O)CC[C@H]2[C@@H]3CCC4=CC(=O)CCC4=C3[C@@H](c3ccc(N(C)C)cc3)C[C@@]21C [Mifepristone]
IC50 (NR3C3 (PR)): […] | rel. activity from literature, NR3C3 (PR): % rem. act. of PGN (NR3C3 (PR); rem. act. of PGN (progesterone)): […] | IC50 (NR3C1 (GR); (lit.), ref Supplementary Table 1, read-out: Potency [nM] IC50, NR3C1 (GR)): 0.8 ± 0.1 nM | rel. activity from literature, NR3C1 (GR): % rem. act. of DXM (NR3C1 (GR); rem. act. of DXM (dexamethasone)): 5 ± 1% | rel. activity from literature, NR3C4 (AR): % rem. act. of DHT (NR3C4 (AR)): 25 ± 2% | IC50 (NR3C4 (AR); read-out: Potency [nM] IC50, NR3C4 (AR), (lit.), ref Supplementary Table 1): 5 ± 2 nM

COc1cc(/C=C(\C#N)C(=O)Nc2nnc(C(F)(F)F)s2)ccc1OCc1ccc(C(F)(F)F)cc1C(F)(F)F [XCT790]
Activity on NR targets outside NR3 family [mean log10(fold reporter gene activity)] NR1C3 (PPARγ) (NR1C3 (PPARγ); 1 µM, vs. DMSO ctrl): 0.75 log10(fold reporter gene activity)

C/C=C1\C(=O)C[C@H]2[C@@H]3CCC4=CC(=O)CC[C@]4(C)[C@H]3CC[C@]12C [Z-Guggulsterone]
IC50 (NR3C3 (PR)): 740 ± 220 nM | Activity on NR1H3 (LXRα) (NR1H3 (LXRα); 3 µM): -0.71 mean log10(fold reporter gene activity) | EC50 (NR3C4 (AR); read-out: Potency [nM] EC50, NR3C4 (AR), (lit.), ref Supplementary Table 1): 660 ± 240 nM
